{"source": "patent US20160222021A1", "about": "“ARYL ETHER-BASE KINASE INHIBITORS” (BRISTOL-MYERS SQUIBB COMPANY, priority 2013, published 2016)", "key": {"mice": {"tested_on": "mice", "assay": "formalin paw test", "assay_type": "in vivo, mouse", "description": "AAK1 homozygous (−/−) and their wild-type (+/+) littermates were tested using the formalin paw test in order to assess their acute and tonic nociceptive responses. For these tests, Automatic Nociception Analyzers (purchased from the Ozaki lab at University of California, San Diego) were used. A metal band was placed around the left hind paw of each mouse 30 minutes prior to testing. After the 30-minute acclimation period, 20 μl of 5% formalin is subcutaneously injected in the dorsal surface of the left hind paw. Mice were individually housed in cylindrical chambers for 45 minutes. Fresh 5% formalin solution was prepared by diluting formaldehyde (Formalde-fresh 20%, Fisher Scientific, Fair Lawn, N.J.) with distilled water. Investigatory compounds were administered 30 minutes prior to formalin injection.\nA computer recorded flinches per minute, total flinches for phase I (acute phase=first 8 minutes), and total flinches for phase II (tonic phase=time between minutes 20-40) through an electromagnetic field. See Yaksh T L, Ozaki G, McCumber D, Rathbun M, Svensson C, Malkmus S, Yaksh M C. An automated flinch detecting system for use in the formalin nociceptive bioassay. J Appl Physiol., 2001; 90:2386-402.\nThe same test was used to confirm that the administration of an AAK1 inhibitor can also affect pain response.\nA compound of the disclosure was tested in this assay at different doses. Gabapentin and pregabalin were used as positive controls. Results are shown below in Table 2, wherein the effect of gabapentin at 200 mg/kg is considered a 100% response, the % response for the other compounds is relative to the 200 mg/kg dose of gabapentin, “sc” means subcutaneous administration."}, "GST-Xa-hAAK1": {"target": "T1, GST-Xa-hAAK1 (Homo sapiens, UniProt Q2M2I8)", "T1 construct": "made in house", "T1 sequence (Q2M2I8 whole entry)": "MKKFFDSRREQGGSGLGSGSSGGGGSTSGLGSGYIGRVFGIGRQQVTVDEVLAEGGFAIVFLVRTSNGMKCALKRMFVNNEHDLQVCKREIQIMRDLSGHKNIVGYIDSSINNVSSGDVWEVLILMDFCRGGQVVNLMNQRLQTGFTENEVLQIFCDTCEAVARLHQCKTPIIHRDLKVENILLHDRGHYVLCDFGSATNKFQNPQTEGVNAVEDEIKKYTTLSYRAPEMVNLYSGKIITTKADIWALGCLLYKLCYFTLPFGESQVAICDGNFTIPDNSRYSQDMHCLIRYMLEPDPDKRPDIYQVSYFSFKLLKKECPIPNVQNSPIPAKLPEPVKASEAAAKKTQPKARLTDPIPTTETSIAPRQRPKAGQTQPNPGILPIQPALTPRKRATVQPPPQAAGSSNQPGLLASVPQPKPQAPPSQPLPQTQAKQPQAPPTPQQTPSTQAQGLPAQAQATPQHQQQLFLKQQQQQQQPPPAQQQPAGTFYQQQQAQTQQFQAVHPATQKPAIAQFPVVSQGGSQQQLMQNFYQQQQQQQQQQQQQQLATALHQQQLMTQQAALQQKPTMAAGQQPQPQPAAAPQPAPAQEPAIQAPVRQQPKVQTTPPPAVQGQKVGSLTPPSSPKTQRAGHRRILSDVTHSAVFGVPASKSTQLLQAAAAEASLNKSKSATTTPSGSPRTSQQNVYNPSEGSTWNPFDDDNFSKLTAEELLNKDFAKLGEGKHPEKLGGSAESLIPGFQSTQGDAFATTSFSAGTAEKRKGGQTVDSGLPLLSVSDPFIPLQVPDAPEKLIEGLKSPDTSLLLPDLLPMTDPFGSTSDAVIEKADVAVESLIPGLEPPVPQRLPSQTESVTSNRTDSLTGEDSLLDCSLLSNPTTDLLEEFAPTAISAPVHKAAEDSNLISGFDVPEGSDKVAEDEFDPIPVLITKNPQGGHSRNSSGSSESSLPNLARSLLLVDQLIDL", "assay": "AAK1 Kinase Assay", "assay_type": "biochemical", "conditions": "ATP 22 μM", "description": "The assays were performed in U-bottom 384-well plates. The final assay volume was 30 μl prepared from 15 μl additions of enzyme and substrates (fluoresceinated peptide (5-FAM)-Aha-[…]-NH2 and ATP) and test compounds in assay buffer (10 mM Tris-HCL pH 7.4, 10 mM MgCl2, 0.01% Tween-20 and 1.0 mM DTT). The reactions were initiated by the combination of bacterially expressed, GST-Xa-hAAK1 with substrates and test compounds. The reactions were incubated at room temperature for 3 hours and terminated by adding 60 μl of 35 mM EDTA buffer to each sample. The reactions were analyzed on the Caliper LabChip 3000 (Caliper, Hopkinton, Mass.) by electrophoretic separation of the fluorescent substrate and phosphorylated product. […] The final concentration of reagents in the assays are ATP, 22 μM; (5-FAM)-Aha-[…]-NH2, 1.5 μM; GST-Xa-hAAK1, 3.5 nM; and DMSO, 1.6%. Dose response curves were generated to determine the concentration required inhibiting 50% of kinase activity (IC50). Compounds were dissolved at 10 mM in dimethylsulfoxide (DMSO) and evaluated at eleven concentrations. IC50 values were derived by non-linear regression analysis."}, "[1]": {"target": "AAK1 (full length human) in HEK293F cells (Homo sapiens, UniProt Q2M2I8)", "sequence (Q2M2I8 1-822 limits assumed)": "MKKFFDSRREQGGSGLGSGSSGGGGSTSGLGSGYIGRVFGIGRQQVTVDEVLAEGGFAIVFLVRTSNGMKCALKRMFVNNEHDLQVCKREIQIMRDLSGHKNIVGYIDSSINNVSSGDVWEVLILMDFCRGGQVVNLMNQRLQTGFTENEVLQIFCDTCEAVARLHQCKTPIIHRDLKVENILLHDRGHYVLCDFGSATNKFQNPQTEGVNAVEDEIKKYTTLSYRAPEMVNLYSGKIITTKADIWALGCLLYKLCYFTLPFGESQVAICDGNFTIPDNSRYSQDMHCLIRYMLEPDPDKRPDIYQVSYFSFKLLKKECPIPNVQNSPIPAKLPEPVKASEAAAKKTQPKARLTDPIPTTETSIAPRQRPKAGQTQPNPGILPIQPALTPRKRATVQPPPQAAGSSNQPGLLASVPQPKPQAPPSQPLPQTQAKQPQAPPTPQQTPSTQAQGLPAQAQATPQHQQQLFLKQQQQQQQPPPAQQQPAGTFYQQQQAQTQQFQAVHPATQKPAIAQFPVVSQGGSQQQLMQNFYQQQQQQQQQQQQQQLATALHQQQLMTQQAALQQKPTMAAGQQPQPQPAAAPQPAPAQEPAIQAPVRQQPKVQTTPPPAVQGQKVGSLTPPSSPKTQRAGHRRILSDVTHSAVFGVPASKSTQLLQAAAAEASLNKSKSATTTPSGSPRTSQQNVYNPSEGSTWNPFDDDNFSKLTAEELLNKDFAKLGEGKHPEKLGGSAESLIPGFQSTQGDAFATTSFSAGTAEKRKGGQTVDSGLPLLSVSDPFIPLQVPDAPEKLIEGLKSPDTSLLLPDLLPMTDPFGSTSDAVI", "assay": "HEK293F Cell-Based Assay (phospho-mu2 Western blot)", "conditions": "3 hours", "description": "HEK293F cells were cultured in media containing DMEM (Gibco, cat. #11965), 10% FBS (SAFC Biosciences, cat. #12103C), 1×GPS (glutamine, penicillin and streptomycin). On day one, cells were plated on a 10 cm dish so that they are ˜80% confluent at time of transfection. Roughly 12 million cells were in a 10 cm dish at time of transfection. On day two, each dish was transfected with 48 ug DNA and 144 ul Lipofectamine 2000 (Invitrogen, cat. #11668-019). The DNA was comprised of a mixture (per 10 cm dish) containing 3 ug AAK1/HA/pIRES (full length human, NCBI accession no. NP_055726.2), 45 μg Flag/AP2MI/pcDNA (full length human), and 1.5 ml OPTI-MEM. The Lipofectamine 2000 is made up of a mixture (per 10 cm dish) containing 144 μl Lipofectamine 2000 and 1.5 ml OPTI-MEM. Each mixture was transferred to individual 15 ml tubes and incubated at RT for 5 minutes, and then the two mixes were combined and incubated at RT for 20 minutes. Growth media was then aspirated from each 10 cm plate and replaced with 10 ml of DMEM+10% FBS (no GPS). Finally, 3 ml DNA/Lipofectamine mix was added to each 10 cm dish and mix gently followed by incubate of plate overnight at 37° C. and 5% CO2.\nOn day three, compounds were diluted in 100% DMSO at 1000× final concentration, followed by 3-fold serial dilutions for a total of 5 concentrations tested. Four compounds were tested per 10 cm dish. One ul of each compound dilution was then pipetted into a deep-well, 96-well plate, followed by addition of 500 μl DMEM+0.5% FBS into each well for a 2× final concentration of each compound. Cells were resuspended in a 10 cm dish by simple pipetting (HEK293 cells come off the plate that easy at this point) and then transferred to a 50 ml conical tube and pelleted by centrifugation at 1000 rpm for 5 min. Cell pellets were then resuspended in 2.75 ml DMEM+0.5% FBS per 10 cm dish and 100 μl of cell suspension transferred into each well of 96-well TC plate. Finally, 100 μl of 2× compound diluted in DMEM+0.5% FBS was then added into wells containing cell suspension for a 1× final concentration. Plates were then incubated at 37° C. and 5% CO2 for 3 hours followed by transferring of cell suspensions from each well into 12-tube PCR strips. The PCR strips were spun in a tip rack at 1000 rpm for 5 minutes to pellet cells and media was then removed by pipetting without disturbing the cell pellet.\nTo prepare for Western Blot analysis, cell pellets were resuspend in 40 ul 1× LDS-PAGE sample buffer (Invitrogen, cat. # NP0008)+2× Halt phophatase and protease inhibitor cocktail (Thermo Scientific, cat. #1861284), followed by sonicating each with microtip sonicator set at 5 for 8-10 seconds. Five ul of 10× NuPage Sample Reducing Agent (with 50 mM DTT) was to each sample followed by heat denaturing at 70 C for 10 min on PCR machine. A total of 10 μl per sample was loaded into each lane of a 4-20% Tris-Glycine Criterion 26-well gel (Biorad, cat. #345-0034) for the phospho-mu2 blot and 10 μl per lane in a 4-12% Bis-Tris (+MES buffer) NuPAGE 26-well gel (Invitrogen, cat. # WG1403BX10) for the mu2 blot. For controls, 2 ng of phospho-mu2 or 20 ng mu2/Flag proteins were loaded in the last well of each gel. After SDS-PAGE, samples on each gel were transferred to PVDF membrane using an iBlot and membranes were blocked for one hour in TBST+5% milk, followed by wash 3× for 5-10 min with TBST. Criterion gels were probed with rabbit anti-phospho-mu2 (1:5000; a rabbit polyclonal antibody produced by New England Peptide and affinity purified at Lexicon) in TBST+5% BSA, whereas, NuPAGE gels were probed with mouse anti-Flag (1:500; Sigma, cat. # F1804) in TBST+5% milk, and these primary antibodies were incubated overnight at 4° C. on a rocker. […]"}, "PC12 cells": {"tested_on": "PC12 cells", "conditions": "Kuai et al. 2011; cited from earlier work"}, "[2]": {"conditions": "50 mg/kg sc, relative to gabapentin 200 mg/kg = 100% response"}}, "note": "pIC50: −log10 of the molar value.", "data": [{"smiles": "CC(C)C[C@@H](N)COc1ccc2c(c1)OCc1cnccc1-2", "note": "[Compound 5, (R)-1-(5H-chromeno[3,4-c]pyridin-8-yloxy)-4-methylpentan-2-amine]", "values": [{"measurement": "Response", "setting": "mice; 10 mg/kg sc, relative to gabapentin 200 mg/kg = 100% response", "result": 45, "unit": "%"}, {"measurement": "Response", "setting": "mice; 30 mg/kg sc, relative to gabapentin 200 mg/kg = 100% response", "result": 88, "unit": "%"}]}, {"smiles": "CC(=O)Nc1cc2c(cn1)COc1c-2ccc(OC[C@@H](N)CC(C)C)c1Cl", "note": "[Example 63, (S)—N-(8-((2-amino-4-methylpentyl)oxy)-7-chloro-5H-chromeno[3,4-c]pyridin-2-yl)acetamide]", "values": [{"measurement": "pIC50", "setting": "GST-Xa-hAAK1; IC50 ranges", "result": "> 9.00"}, {"measurement": "pIC50", "setting": "[1]; IC50 ranges", "result": "> 9.00"}]}, {"smiles": "CC(C)C[C@H](N)COc1ccc2c(c1)OCc1cnc(NC(=O)OC(C)C)cc1-2", "note": "[Example 64, (S)-isopropyl (8-((2-amino-4-methylpentyl)oxy)-5H-chromeno[3,4-c]pyridin-2-yl)carbamate]", "values": [{"measurement": "pIC50", "setting": "GST-Xa-hAAK1; numeric values", "result": 8.28}, {"measurement": "pIC50", "setting": "[1]; numeric values", "result": 7.82}]}, {"smiles": "COC(=O)Nc1cc2c(cn1)COc1cc(OCC(C)(N)CC(C)C)ccc1-2", "note": "(stereo not shown) [Example 67, methyl (8-((2-amino-2,4-dimethylpentyl)oxy)-5H-chromeno[3,4-c]pyridin-2-yl)carbamate]", "values": [{"measurement": "pIC50", "setting": "GST-Xa-hAAK1; IC50 ranges", "result": "8.00 to 9.00"}, {"measurement": "pIC50", "setting": "[1]; IC50 ranges", "result": "7.00 to 8.00"}]}, {"smiles": "CCC(=O)Nc1cc2c(cn1)COc1cc(OC[C@@H](N)CC(C)C)ccc1-2", "note": "[Example 73, (S)—N-(8-((2-amino-4-methylpentyl)oxy)-5H-chromeno[3,4-c]pyridin-2-yl)propionamide]", "values": [{"measurement": "pIC50", "setting": "GST-Xa-hAAK1; IC50 ranges", "result": "8.00 to 9.00"}, {"measurement": "pIC50", "setting": "[1]; IC50 ranges", "result": "7.00 to 8.00"}]}, {"smiles": "COC(=O)Nc1cc2c(cn1)COc1c-2ccc(OC[C@@H](N)CC(C)C)c1Cl", "note": "[Example 74, (S)-methyl (8-((2-amino-4-methylpentyl)oxy)-7-chloro-5H-chromeno[3,4-c]pyridin-2-yl)carbamate]", "values": [{"measurement": "pIC50", "setting": "GST-Xa-hAAK1; IC50 ranges", "result": "8.00 to 9.00"}, {"measurement": "pIC50", "setting": "[1]; IC50 ranges", "result": "> 9.00"}]}, {"smiles": "CCOC(=O)Nc1cc2c(cn1)COc1cc(OC[C@@H](N)CC(C)C)ccc1-2", "note": "[Example 77, (S)-ethyl (8-((2-amino-4-methylpentyl)oxy)-5H-chromeno[3,4-c]pyridin-2-yl)carbamate]", "values": [{"measurement": "pIC50", "setting": "GST-Xa-hAAK1; IC50 ranges", "result": "8.00 to 9.00"}, {"measurement": "pIC50", "setting": "[1]; IC50 ranges", "result": "8.00 to 9.00"}]}, {"smiles": "CCOC(=O)Nc1cc2c(cn1)COc1cc(OC[C@@](C)(N)CC(C)C)ccc1-2", "note": "[Example 81, (S)-ethyl (8-((2-amino-2,4-dimethylpentyl)oxy)-5H-chromeno[3,4-c]pyridin-2-yl)carbamate]", "values": [{"measurement": "pIC50", "setting": "GST-Xa-hAAK1; IC50 ranges", "result": "> 9.00"}, {"measurement": "pIC50", "setting": "[1]; IC50 ranges", "result": "> 9.00"}]}, {"smiles": "COC(=O)Nc1ncc2c(c1Cl)-c1cc(Cl)c(OC[C@@](C)(N)CC(C)C)cc1OC2", "note": "[Example 82, (S)-methyl (8-((2-amino-2,4-dimethylpentyl)oxy)-1,9-dichloro-5H-chromeno[3,4-c]pyridin-2-yl)carbamate]", "values": [{"measurement": "pIC50", "setting": "GST-Xa-hAAK1; IC50 ranges", "result": "8.00 to 9.00"}, {"measurement": "pIC50", "setting": "[1]; IC50 ranges", "result": "8.00 to 9.00"}]}, {"smiles": "COC(=O)[C@@]1(O)C[C@H]2O[C@]1(C)n1c3ccccc3c3c4c(c5c6ccccc6n2c5c31)C(=O)NC4", "note": "[Example K252a, K252a]", "values": [{"measurement": "effect on Neuregulin-1 induced neurite outgrowth", "setting": "PC12 cells", "result": "potentiation of Neuregulin-1 induced neurite outgrowth"}]}, {"smiles": "NCC1(CC(=O)O)CCCCC1", "note": "[Gabapentin]", "values": [{"measurement": "Response", "setting": "mice; [2]", "result": 60, "unit": "%"}, {"measurement": "Response", "setting": "mice; 200 mg/kg sc, considered a 100% response", "result": 100, "unit": "%"}]}, {"smiles": "CC(C)C[C@H](CN)CC(=O)O", "note": "[Pregabalin]", "values": [{"measurement": "Response", "setting": "mice; [2]", "result": 90, "unit": "%"}]}]}
